Measurements taken from a melting point compilation (Tetko et al.; mined from patent text by program, amines drawn as free bases though some values may be those of a salt).

Row | Structure (SMILES) | melting point
1 | O=C(Nc1ccc2nc(CN3CCCCC3)ccc2c1)c1ccc(-c2ccc(F)cc2F)nc1 | 182 to 183 °C
2 | Cc1cc(COc2ccc(CC(=O)O)cc2Cl)ccc1OC(C)C | 104 to 105 °C
3 | CS(=O)(=O)c1ccc(-c2c(Br)c3cccccc-3c2-c2ccccc2)cc1 | 172 to 173 °C
4 | CC(C)N1NN=C(c2cn(C)c3ccccc3c2=O)N1 | 134 to 137 °C
5 | CC(C)(C)c1cc(OCCCC#N)cc(C(C)(C)C)c1O | 67 to 69 °C
6 | COc1ccc(C(O)(C(F)(F)F)C(F)(F)F)cc1C=O | 160 to 161 °C
7 | CC(=O)c1cnc2c(NC(=O)c3c(Cl)cccc3Cl)cccc2c1N1CCOCC1 | 231 to 233 °C
8 | CCOC=C(C#N)C(=O)c1cc(F)c(F)c(F)c1F | 99 to 101 °C
9 | COC(=O)CCc1cnoc1-c1ccc(OC)c(OC)c1 | 68 to 69 °C
10 | NC(=O)CCC(CCCCNS(=O)(=O)c1ccc(Cl)cc1)CCCc1cccnc1 (stereo unspecified) | 100 to 102 °C
11 | CCCN(CCC)c1ccc(NC(=O)N(C[C@H]2CC[C@H](CN(C(=O)Nc3ccc(N(CCC)CCC)cc3)C3CCCCC3)CC2)C2CCCCC2)cc1 | 147 to 150 °C
12 | CCOC(=O)C1N=C(c2ccccc2)c2cc(Cl)ccc2N(C)C1=O (stereo unspecified) | 180 °C
13 | CN(C)C(=O)C(C)(C)c1cn2nc(Cl)ccc2n1 | 149 to 151 °C
14 | Cc1ccc(C(=O)SCC2C(=O)OCC2c2ccc(Cl)cc2)cc1 (stereo unspecified) | 99 to 100 °C
15 | COc1ccc(C(=O)c2ccccc2C)cc1C | 72 to 73 °C
16 | CCc1c(C)[nH]c2cc(OCOC)c(Cl)cc2c1=O | 217 to 219 °C
17 | CCOC(=O)N(c1ccc(C(O)(C(F)(F)F)C(F)(F)F)cc1)S(C)(=O)=O | 108 to 112 °C
18 | Cn1cc(C2=C(c3c4n(c5ccccc35)CCC(C(N)=O)C4)C(=O)NC2=O)c2ccccc21 (stereo unspecified) | 315 to 316 °C
19 | CCCc1c(C(=O)C(C)C)c2ccc(C(=O)O)cc2n1Cc1ccccc1[N+](=O)[O-] | 214 to 215 °C
20 | CCOC(=O)c1c(C)nc(CCl)c(C(=O)OCC)c1-c1cccc([N+](=O)[O-])c1 | 76 to 78 °C
21 | CC(C)C(=O)NCCNCC(O)COc1ccc(O)c(CO)c1 (stereo unspecified) | 148 to 149 °C
22 | COC(=O)c1c(Sc2ccc(OC)cc2)nc(C)n1Cc1cc2c(cc1Cl)OCO2 | 152 °C
23 | O=c1ccn(CCO)c(C(O)c2cccc(F)c2)c1OCc1ccccc1 (stereo unspecified) | 194 to 196 °C
24 | CSc1nncc(-c2ccccc2)n1 | 99 to 100 °C
25 | C1=Cc2cc3ccccc3cc2C1 | 160 to 163 °C
26 | N#CNc1ccccc1I | 117 to 118 °C

Row | Structure (SMILES) | melting point
27 | CSc1nc(Cl)c2ccsc2n1 | 105 to 107 °C
28 | CCNC(=O)N(C)c1c(C)cc(C(O)(C(F)(F)F)C(F)(F)F)cc1C | 178 to 179 °C
29 | CC1c2ccccc2-c2ccccc2N1S(=O)(=O)c1ccc(O)c(C(=O)O)c1 (stereo unspecified) | 225 to 230 °C
30 | Cc1cc(Br)c2nc(Cl)ccc2c1 | 107 to 108 °C
31 | COc1cc(OCC(=O)O)cc(C)c1SCc1sc(-c2ccc(C(F)(F)F)cc2)nc1C | 164 to 165 °C
32 | CC(=O)Nc1nc(O)c2cc(C=Cc3ccc(C(=O)O)cc3)cnc2n1 | > 300 °C
33 | FCc1cccc(C#CCCc2nc3ccccc3s2)n1 | 74 to 76 °C
34 | COC(=O)c1nc(-c2ccccn2)n2c1CN=C(c1ccccc1Cl)c1cc(Cl)ccc1-2 | 282 to 285 °C
35 | CCOC(=O)Nc1ccc2c(c1C=O)OCO2 | 123 °C
36 | O=C(NCC1CCCCC1)c1c(Cl)ccc2nc(N3CCC[C@@H]3C(=O)O)ccc12 | 157 to 160 °C
37 | O=C(O)[C@@H]1CCc2ccccc2N1C(=O)OCc1ccccc1 | 75 to 79 °C
38 | C[C@@H]1CN(CC(=O)Nc2ccccc2Cl)C[C@H](C)N1c1ncnc2c1ncn2C | 221 to 222 °C
39 | CCCCN(CCCC)c1ccc(C=Cc2cc(C)c(C=CC3=C(C#N)C(=C(C#N)C#N)OC3(C)C)cc2C)c(OC)c1 | 242 to 244 °C
40 | CCCc1ccc(S(=O)(=O)NN2CCN(C)CC2)cc1 | 153 to 154 °C
41 | CC1C(=O)Oc2cc(N3CCCC3)ccc21 (stereo unspecified) | 101 to 103 °C
42 | O=c1[nH]c2cc(Cl)ccc2c(=O)c(-c2ccco2)c1O | 233 to 234 °C
43 | COc1cc(-n2cccn2)ccc1-n1cc(OC)c(=O)c(-c2ccnn2-c2cccc(Cl)c2)n1 | 167 to 168 °C
44 | O=C1c2c(cc(O)c(Cl)c2Cl)CC1c1ccccc1 (stereo unspecified) | 250 to 252 °C
45 | COc1cccc([C@H]2O[C@H](CC(=O)NCc3ccc(C(=O)O)cc3)C(=O)N(CC(C)(C)CO)c3ccc(Cl)cc32)c1OC | 143 to 144 °C
46 | Cc1cccc([N+](=O)[O-])c1C#N | 101 to 103 °C
47 | COc1ccccc1N1CCN(Cc2ccccc2CCC(=O)O)CC1 | 155 to 158 °C
48 | Nc1ccc([N+](=O)[O-])cc1OCCc1cccc2ccccc12 | 151 to 153 °C
49 | CCCc1nc(C)n2nc(C(=O)OCC)nc2c1Cc1ccc(-c2ccccc2C#N)cc1 | 108 °C
50 | CCOc1ccc([C@@H]2CCNC(=O)[C@H]2c2ccccc2)cc1 (relative stereo) | 161 to 162 °C
51 | CCOC(=O)C(=O)CC(=O)c1cn(Cc2ccc(F)cc2)c2c(F)cccc2c1=O | 179 to 180 °C
52 | O=C1CCc2ccc(C(F)(F)F)cc2CC1 | 78 °C

Row | Structure (SMILES) | melting point
53 | CCOC(=Cc1ccc(C(=O)OC)cc1)c1ccc2c(c1)C(C)(C)CCC2(C)C | 204 to 206 °C
54 | CCCCCCCCCCCCC#CC#CCn1c2ccccc2c2ccccc21 | 53 to 58 °C
55 | Cc1ccc(Cn2c(=O)c3c(Cl)cc(Cl)cc3n(Cc3ccccc3)c2=O)cc1 | 166 to 169 °C
56 | C=CCOc1ccccc1-c1ncc(C#N)c(=O)[nH]1 | 162 to 164 °C
57 | CC(C)c1ccnc(C(=O)c2[nH]c3cc(Cl)ccc3c2CC(=O)O)c1 | 194 to 196 °C
58 | C=CC[C@H]1CCC[C@H](N2C(=O)c3ccccc3C2=O)C(=O)N1CC(=O)OC | 107 to 109 °C
59 | Nc1ccc(Cl)cc1C1=CCN(C/C=C/c2ccc(Cl)cc2)CC1 | 168 to 170 °C
60 | CCOC(=O)C1=CC(=O)C(C(=O)OCC)=C(S(=O)(=O)c2ccccc2)C1=O | 112 to 114 °C
61 | O=C(Cc1ccccc1)Nc1cc(C(=O)O)cc(C(=O)O)c1 | > 300 °C
62 | NC(=S)N(O)[C@H]1C[C@@H](c2ccc(F)cc2)C1 | 156 to 158 °C
63 | CN(C)S(=O)(=O)C(Br)(Br)S(=O)(=O)c1ccccc1 | 144 to 145 °C
64 | COc1ccc(Nc2nc(C=O)cs2)cc1 | 108 to 110 °C
65 | CC(NC(=O)C=Cc1ccc(Cl)cc1)c1ccc(NS(C)(=O)=O)c(F)c1 (stereo unspecified) | 170 to 172 °C
66 | O=[N+]([O-])C1=C2N(Cc3cnc(Cl)s3)CCN2C2CCC1O2 (stereo unspecified) | 152 °C
67 | CC(C)[C@H](NC(=O)OCc1ccccc1)C(=O)OC[C@H]1O[C@@H](n2cc(F)c(=O)[nH]c2=O)[C@H](O)[C@@H]1O | 64 to 67 °C
68 | Cc1cn2c(n1)C(=O)CCC2 | 147 to 149 °C
69 | CCOC(=O)c1cc(=O)c2ccccc2n1C | 114 to 115 °C
70 | CCOC(=O)c1cc2cc(F)cnc2n1Cc1ccncc1 | 236 to 237 °C
71 | O=C(O)C1C=CCN2C(=O)C(CCS)(Cc3ccccc3)C(=O)N12 (stereo unspecified) | 151 to 154 °C
72 | Cc1ccccc1NC(=O)CN1CC2CCC(C1)N2S(=O)(=O)c1ccccc1 | 169 to 170 °C
73 | CC(CNS(=O)(=O)c1ccc(-c2ccccn2)s1)N1CCC(Oc2ccc(F)c(F)c2)CC1 (stereo unspecified) | 153 to 154 °C
74 | COC(=O)c1cc(OC)c([N+](=O)[O-])cc1N | 127 to 129 °C
75 | Cn1c(=O)c(=O)[nH]c2cc(C(F)(F)F)ccc21 | 255 °C
76 | C=C1C[C@@H]2[C@H](CC[C@]3(C)C(=O)CC[C@@H]23)[C@@]2(C)CCC(=O)C(OC)=C12 | 196 to 198 °C
77 | Nc1nn(-c2ccccc2)c(N)c1CN1CCN(c2cccc3c2OCCO3)CC1 | 84 to 87 °C
78 | CC(C(N)=O)c1ccc(-c2ccc(F)cc2F)c(O)c1 (stereo unspecified) | 222 to 224 °C

Row | Structure (SMILES) | melting point
79 | CCCCc1nn(-c2ccc(NCc3ccccc3)cc2C(F)(F)F)c(=O)n1Cc1ccc(-c2ccccc2S(=O)(=O)NC(=O)c2ccccc2Cl)cc1 | > 107 °C
80 | CCN(CC)c1ccc2c(c1)Cc1c-2[nH]c2ccccc12 | 204 to 206 °C
81 | COC(=O)c1ccc2c(c1)NC(=O)C(CCO)O2 (stereo unspecified) | 167 to 169 °C
82 | COc1ccc(CN(Cc2ccc(OC)cc2)c2nc(-c3ccccc3)c(-c3ccc(=O)n(C(C)C)n3)nc2C(N)=O)cc1 | 120 to 122 °C
83 | COC(=O)C(C)C1CCC2C3CC=C4CC(OC(C)=O)CCC4(C)C3CCC12C (stereo unspecified) | 140 to 142 °C
84 | CCSc1nnc(CO)n1Cc1ccc(N)cc1 | 145 to 147 °C
85 | CCCCN(CCCC)S(=O)(=O)c1cc(C(=O)O)ccc1Cl | 93 to 96 °C
86 | CC(C)(C(=O)OCC(=O)c1ccccc1)n1c(=O)[nH]c2ccc(F)cc2c1=O | 192 to 193 °C
87 | CCCCCn1nc(-c2cccc(C(F)(F)F)c2F)c(=O)c2cccc(OC)c21 | 82 to 84 °C
88 | c1ccc2c(c1)CCOC2 | 89 to 90 °C
89 | O=C1N=CC(OCC2CCC2)(C(F)(F)F)c2cc(F)ccc2N1 (stereo unspecified) | 190 to 191 °C
90 | COC(=O)C1=C(C)Nc2ccccc2NC1c1ccccc1C(F)(F)F (stereo unspecified) | 190 to 192 °C
91 | CN1CC2=C(n3cnc(I)c3C1)S(=O)C=C2 (stereo unspecified) | 175 to 177 °C
92 | CNC(=N)Nc1nc(-c2ccc(OC)cc2)c(-c2ccc(OC)cc2)s1 | 155 to 157 °C
93 | CC/C(=C\c1ccc(OCCOC)cc1Oc1ncc(Cl)cc1Cl)C(=O)O | 139 to 140 °C
94 | COC(=O)c1cc2ccccc2nc1C(=O)OC | 105 to 106 °C
95 | COc1ccc2nc(-n3ccnc3)nc(NCCS(C)=O)c2c1 (stereo unspecified) | 238 to 242 °C
96 | Cc1c(F)c(N2CC[C@@H](C(C)(C)N)C2)cc2c1c(=O)c(C(=O)O)cn2-c1ccc(F)cc1F | 156 to 158 °C
97 | O=C(NCC1CCOCC1)NC12CC3CC(CC(C3)C1)C2 | 196 to 198 °C
98 | Nc1cc(Nc2ccccc2)nc2c1ncn2C1OC(CO)C(O)C1O (stereo unspecified) | 192 to 195 °C
99 | CCC(=O)N(C)C1CCN(Cc2cc3cccnc3n(-c3ccccc3F)c2=O)CC1 | 218 to 220 °C
100 | OCCCOc1ccc(Cl)cc1Cl | 53 to 55 °C
101 | COc1cc(OC)nc(NC(=O)NS(=O)(=O)Oc2ccccc2C(=O)OCCCl)n1 | 148 to 150 °C
